Experimental data published in patent US20260272936A1, “TREATMENT OF CANCER WITH A PARG INHIBITOR” (858 Therapeutics, Inc., priority 2023, published 2026).

Tested on: HBCx-34 breast cancer patient-derived xenograft
Assay: HBCx-34 breast cancer PDX model
Assay type: in vivo, Hsd: Athymic Nude-Foxn1nu mice
Conditions: 75 or 100 mg/kg BID, at day 15, transient
Method: The PDX models were established by subcutaneous inoculation of HBCx-22 or HBCx-34 cells into Hsd: Athymic Nude-Foxn1nu mice. Breast tumor-bearing mice received estrogen diluted in drinking water (β-oestradiol, 8.5 mg/L) from the date of tumor inoculation until the end of the study to promote optimal growth of the ER^+ cell line. Groups of 10 animals each were established by random assignment. Tumor volumes and body weights were measured twice weekly. […] Statistical analysis of end-of-study tumor volumes was performed using the Kruskal-Wallis test with Dunn's multiple comparisons test (HBCx-34) or Brown-Forsythe test with Dunnett's T3 multiple comparisons test (HBCx-22).
Compound 1 was administered to mice orally twice daily (BID) for 42 days at a dose of 75 or 100 mg/kg based on body weight. […] Compound 1 was administered to mice orally BID for 35 days at doses of 75 or 100 mg/kg based on body weight.

[2H]C([2H])(c1cnn(C)c1)N1C(=O)c2cc(S(=O)(=O)NC3(C)CC3)ccc2N2C1=NC[C@H]2C [Compound 1, (R)-1-methyl-4-((1-methyl-1H-pyrazol-4-yl)methyl-d2)-N-(1-methylcyclopropyl)-5-oxo-1,2,4,5-tetrahydroimidazo[1,2-a]quinazoline-7-sulfonamide]
maximum decrease in body weight: approximately 11%
